From patent US20250115600A1, “COVALENT MODIFIERS OF AKT1 AND USES THEREOF” (Terremoto Biosciences, Inc., priority 2022, published 2025)

Experiments:
Test in all cases: Live cell target engagement (NanoBRET) in HEK293 cells
Type in all cases: cell-based
AKT1 E17K = AKT1 E17K (Homo sapiens (Human), UniProt P31749, E17K); settings: for IC50: HEK293, 2 hours at 37° C.
AKT1 WT = AKT1 WT (Homo sapiens (Human), UniProt P31749); settings: HEK293, 2 hours at 37° C.
AKT2 = AKT2 (Homo sapiens (Human), UniProt P31751); settings: HEK293, 2 hours at 37° C.
Chain of AKT2 (P31751 whole entry): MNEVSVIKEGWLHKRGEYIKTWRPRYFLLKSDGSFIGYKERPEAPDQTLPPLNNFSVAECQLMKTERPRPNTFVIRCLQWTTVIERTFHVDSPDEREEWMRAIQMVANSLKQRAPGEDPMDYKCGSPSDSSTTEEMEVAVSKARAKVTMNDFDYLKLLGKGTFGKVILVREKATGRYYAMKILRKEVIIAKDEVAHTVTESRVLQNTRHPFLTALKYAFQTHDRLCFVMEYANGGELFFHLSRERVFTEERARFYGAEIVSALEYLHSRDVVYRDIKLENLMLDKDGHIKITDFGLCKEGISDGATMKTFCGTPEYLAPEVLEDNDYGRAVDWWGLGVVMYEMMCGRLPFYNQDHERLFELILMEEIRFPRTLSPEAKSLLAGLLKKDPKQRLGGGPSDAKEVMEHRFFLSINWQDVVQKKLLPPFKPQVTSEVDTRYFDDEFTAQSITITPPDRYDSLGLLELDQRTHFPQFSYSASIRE

Chain of AKT1 WT (P31749 whole entry): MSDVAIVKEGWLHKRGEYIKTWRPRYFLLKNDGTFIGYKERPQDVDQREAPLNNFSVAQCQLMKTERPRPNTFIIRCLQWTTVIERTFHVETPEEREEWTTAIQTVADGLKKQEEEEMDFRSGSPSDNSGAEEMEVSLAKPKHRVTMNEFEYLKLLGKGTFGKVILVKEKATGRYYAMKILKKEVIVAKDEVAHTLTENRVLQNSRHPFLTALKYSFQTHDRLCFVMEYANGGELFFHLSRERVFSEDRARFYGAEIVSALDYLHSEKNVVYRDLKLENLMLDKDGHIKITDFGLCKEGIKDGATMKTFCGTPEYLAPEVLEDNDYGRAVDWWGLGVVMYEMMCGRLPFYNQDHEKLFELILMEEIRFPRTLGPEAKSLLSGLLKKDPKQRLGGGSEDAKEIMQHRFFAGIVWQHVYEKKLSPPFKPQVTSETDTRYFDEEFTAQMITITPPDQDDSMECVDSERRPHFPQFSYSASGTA
Chain of AKT1 E17K (P31749 whole entry E17K): as the sequence (P31749 whole entry) above, with E17K counted along it

Row | AKT1 E17K IC50: Selectivity vs AKT1 WT (AKT1 E17K) | AKT1 E17K IC50: Selectivity vs AKT2 (AKT1 E17K) | IC50 (AKT1 E17K) [nM] | IC50 (AKT1 WT) [nM] | IC50 (AKT2) [nM] | Compound
1 | 2.9 | 18 | < 100 | 100 to 500 | > 500 | Nc1ncccc1-c1nc2ccc(-c3ccncc3)nc2n1-c1ccc(CNCCc2ccc(C=O)c(O)c2)cc1 [Compound 119, 4-{2-[({4-[2-(2-aminopyridin-3-yl)-5-(pyridin-4-yl)imidazo[4,5-b]pyridin-3-yl]phenyl}methyl)amino]ethyl}-2-hydroxybenzaldehyde]
2 | 0.24 | 0.77 | > 500 | > 500 | > 500 | CC(C)(C)c1cc(C(=O)NCc2ccc(-n3c(-c4cccnc4N)nc4ccc(-c5ccccc5)nc43)cc2)cc(C=O)c1O [Compound 41, N-(4-(2-(2-aminopyridin-3-yl)-5-phenyl-3H-imidazo[4,5-b]pyridin-3-yl)benzyl)-3-(tert-butyl)-5-formyl-4-hydroxybenzamide]
3 | 0.16 | 0.72 | < 100 | < 100 | < 100 | Nc1ncccc1-c1nc2ccc(-c3ccccc3)nc2n1-c1ccc(CNCCc2ccc(O)c(C=O)c2)cc1 [Compound 135, 5-(2-((4-(2-(2-aminopyridin-3-yl)-5-phenyl-3H-imidazo[4,5-b]pyridin-3-yl)benzyl)amino)ethyl)-2-hydroxybenzaldehyde]
4 | 4.4 | 88 | < 100 | < 100 | > 500 | Nc1ncccc1-c1nc2ccc(-c3cccnc3)nc2n1-c1ccc(CNC(=O)Cc2ccc(C=O)c(O)c2F)cc1 [Compound 79, N-({4-[2-(2-aminopyridin-3-yl)-5-(pyridin-3-yl)imidazo[4,5-b]pyridin-3-yl]phenyl}methyl)-2-(2-fluoro-4-formyl-3-hydroxyphenyl)acetamide]
5 | 1.7 | 4.9 | < 100 | < 100 | < 100 | Nc1ncccc1-c1nc2ccc(-c3cccc(N4CCOCC4)c3)nc2n1-c1ccc(CCNCc2ccc(C=O)c(O)c2)cc1 [Example 19, 4-(((4-(2-(2-aminopyridin-3-yl)-5-(3-morpholinophenyl)-3H-imidazo[4,5-b]pyridin-3-yl)phenethyl)amino)methyl)-2-hydroxybenzaldehyde]
6 | 1.5 | 7 | < 100 | < 100 | 100 to 500 | Nc1ncccc1-c1nc2ccc(-c3ccccc3)nc2n1-c1ccc(CNCCCc2ccc(C=O)c(O)c2)cc1 [Compound 130, 4-(3-((4-(2-(2-aminopyridin-3-yl)-5-phenyl-3H-imidazo[4,5-b]pyridin-3-yl)benzyl)amino)propyl)-2-hydroxybenzaldehyde]
7 | 8.2 | 45 | < 100 | 100 to 500 | > 500 | CC(C)(C(=O)NCc1ccc(-n2c(-c3cccnc3N)nc3ccc(-c4ccccc4)nc32)cc1)c1ccc(C=O)c(O)c1 [Compound 60, N-({4-[2-(2-aminopyridin-3-yl)-5-phenylimidazo[4,5-b]pyridin-3-yl]phenyl}methyl)-2-(4-formyl-3-hydroxyphenyl)-2-methylpropanamide]
8 | 2.6 | 7.7 | < 100 | < 100 | 100 to 500 | CC(NCCc1ccc(C=O)c(O)c1)c1ccc(-n2c(-c3cccnc3N)nc3ccc(-c4ccccc4)nc32)cc1 (stereo not drawn) [Compound 127, 4v-(2-((1-(4-(2-(2-aminopyridin-3-yl)-5-phenyl-3H-imidazo[4,5-b]pyridin-3-yl)phenyl)ethyl)amino)ethyl)-2-hydroxybenzaldehyde]
9 | 1.9 | 10 | < 100 | < 100 | 100 to 500 | CC(NC(=O)Cc1ccc(C=O)c(O)c1)c1ccc(-n2c(-c3cccnc3N)nc3ccc(-c4ccccc4)nc32)cc1 (stereo not drawn) [Compound 116, N-(1-{4-[2-(2-aminopyridin-3-yl)-5-phenylimidazo[4,5-b]pyridin-3-yl]phenyl}ethyl)-2-(4-formyl-3-hydroxyphenyl)acetamide]
10 | 1.9 | 13 | 100 to 500 | 100 to 500 | > 500 | CN(C(=O)CCc1ccc(C=O)c(O)c1)c1ccc(-n2c(-c3cccnc3N)nc3ccc(-c4ccccc4)nc32)cc1 [Compound 100, N-(4-(2-(2-aminopyridin-3-yl)-5-phenyl-3H-imidazo[4,5-b]pyridin-3-yl)phenyl)-3-(4-formyl-3-hydroxyphenyl)-N-methylpropanamide]
11 | 0.86 | 2.3 | < 100 | < 100 | 100 to 500 | Nc1ncccc1-c1nc2ccc(-c3ccccc3)nc2n1-c1ccc(CNCCc2ccc(C=O)c(O)c2Cl)cc1 [Compound 120, 4-{2-[({4-[2-(2-aminopyridin-3-yl)-5-phenylimidazo[4,5-b]pyridin-3-yl]phenyl}methyl)amino]ethyl}-3-chloro-2-hydroxybenzaldehyde]
12 | 1.5 | 15 | 100 to 500 | 100 to 500 | > 500 | Nc1ncccc1-c1nc2ccc(-c3ccccc3)nc2n1-c1ccc(N2CC(NCc3ccc(C=O)c(O)c3)C2)cc1 [Compound 38, 4-(((1-(4-(2-(2-aminopyridin-3-yl)-5-phenyl-3H-imidazo[4,5-b]pyridin-3-yl)phenyl)azetidin-3-yl)amino)methyl)-2-hydroxybenzaldehyde]
13 | 1.1 | 2 | 100 to 500 | 100 to 500 | > 500 | CC(=O)Nc1cccc(-c2ccc3nc(-c4cccnc4N)n(-c4ccc(CNCCc5ccc(C=O)c(O)c5F)cc4)c3n2)c1 [Compound 102, N-{3-[2-(2-aminopyridin-3-yl)-3-[4-({[2-(2-fluoro-4-formyl-3-hydroxyphenyl)ethyl]amino}methyl)phenyl]imidazo[4,5-b]pyridin-5-yl]phenyl}acetamide]
14 | 0.91 | 4.1 | < 100 | < 100 | 100 to 500 | Nc1ncccc1-c1nc2ccc(-c3ccccc3)nc2n1-c1ccc(C(=O)NCc2ccc(C=O)c(O)c2)cc1 [Compound 137, 4-(2-(2-aminopyridin-3-yl)-5-phenyl-3H-imidazo[4,5-b]pyridin-3-yl)-N-(4-formyl-3-hydroxybenzyl)benzamide]
15 | 2.5 | 57 | < 100 | 100 to 500 | > 500 | Nc1ncccc1-c1nc2ccc(-c3cccnc3)nc2n1-c1ccc(CNCCc2ccc(C=O)c(O)c2)cc1 [Compound 113, 4-(2-((4-(2-(2-aminopyridin-3-yl)-5-(pyridin-3-yl)-3H-imidazo[4,5-b]pyridin-3-yl)benzyl)amino)ethyl)-2-hydroxybenzaldehyde]
16 | 3.9 | 55 | < 100 | < 100 | 100 to 500 | Nc1ncccc1-c1nc2ccc(-c3cccnc3)nc2n1-c1ccc(CNCCc2ccc(C=O)c(O)c2F)cc1 [Compound 88, 4-(2-((4-(2-(2-aminopyridin-3-yl)-5-(pyridin-3-yl)-3H-imidazo[4,5-b]pyridin-3-yl)benzyl)amino)ethyl)-3-fluoro-2-hydroxybenzaldehyde]
17 | 2.7 | >7.7 | > 500 | > 500 | > 500 | Nc1ncccc1-c1nc2cccnc2n1-c1ccc(CNC(=O)c2cc(C=O)c(O)cn2)cc1 [Compound 45, N-(4-(2-(2-aminopyridin-3-yl)-3H-imidazo[4,5-b]pyridin-3-yl)benzyl)-4-formyl-5-hydroxypicolinamide]
18 | 1.9 | 6.2 | < 100 | 100 to 500 | > 500 | Nc1ncccc1-c1nc2ccc(-c3ccccc3)nc2n1-c1ccc(C(CO)NC(=O)Cc2ccc(C=O)c(O)c2F)cc1 (stereo not drawn) [Compound 30, N-(1-(4-(2-(2-aminopyridin-3-yl)-5-phenyl-3H-imidazo[4,5-b]pyridin-3-yl)phenyl)-2-hydroxyethyl)-2-(2-fluoro-4-formyl-3-hydroxyphenyl)acetamide]
19 | 1.7 | 4.8 | < 100 | < 100 | < 100 | Nc1ncccc1-c1nc2ccc(-c3cccc(N4CCC(N5CCCC5=O)CC4)c3F)nc2n1-c1ccc(CNC(=O)Cc2ccc(C=O)c(O)c2)cc1 [Compound 42, N-({4-[2-(2-aminopyridin-3-yl)-5-{2-fluoro-3-[4-(2-oxopyrrolidin-1-yl)piperidin-1-yl]phenyl}imidazo[4,5-b]pyridin-3-yl]phenyl}methyl)-2-(4-formyl-3-hydroxyphenyl)acetamide]
20 | 1.8 | 64 | < 100 | < 100 | 100 to 500 | Nc1ncccc1-c1nc2ccc(-c3ccccc3F)nc2n1-c1ccc(CNC(=O)Cc2ccc(C=O)c(O)c2)cc1 [Compound 54, N-({4-[2-(2-aminopyridin-3-yl)-5-(2-fluorophenyl)imidazo[4,5-b]pyridin-3-yl]phenyl}methyl)-2-(4-formyl-3-hydroxyphenyl)acetamide]

Row | Compound | AKT1 E17K IC50: Selectivity vs AKT1 WT (AKT1 E17K) | AKT1 E17K IC50: Selectivity vs AKT2 (AKT1 E17K) | IC50 (AKT1 E17K) [nM] | IC50 (AKT1 WT) [nM] | IC50 (AKT2) [nM]
21 | CC(C(=O)NCc1ccc(-n2c(-c3cccnc3N)nc3ccc(-c4ccccc4)nc32)cc1)c1ccc(C=O)c(O)c1 (stereo not drawn) [Compound 37] | 11 | 180 | < 100 | < 100 | > 500
